Target: T1, ImcA (PA1851) (Pseudomonas aeruginosa, UniProt Q9I2P4)
T1 construct: full-length membrane protein (6TM L47-E231, GGDEF R241-A393), expressed in E. coli BL21(DE3), DDM-solubilised, Strep-Tactin purified, homodimer
Assay: HPLC of c-di-GMP formation
Type: biochemical
Details: 200 µM GTP; 50 mM Tris-HCl pH 8.0, 150 mM NaCl, 0.025% DDM; 37 °C, 2 h; without IsmP

T1 sequence (Q9I2P4 entry or part of it): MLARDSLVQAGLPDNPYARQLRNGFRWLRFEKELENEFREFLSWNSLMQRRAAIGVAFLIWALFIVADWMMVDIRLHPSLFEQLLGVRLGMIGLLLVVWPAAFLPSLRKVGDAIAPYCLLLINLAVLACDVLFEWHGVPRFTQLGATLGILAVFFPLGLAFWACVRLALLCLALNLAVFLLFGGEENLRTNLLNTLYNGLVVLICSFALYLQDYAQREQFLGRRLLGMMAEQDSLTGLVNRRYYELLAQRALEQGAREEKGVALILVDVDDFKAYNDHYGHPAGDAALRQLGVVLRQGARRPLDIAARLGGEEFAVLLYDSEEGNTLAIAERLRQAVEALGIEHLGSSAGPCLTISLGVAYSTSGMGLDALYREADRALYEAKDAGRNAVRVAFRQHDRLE

Nc1nc2c(ncn2[C@@H]2O[C@H](COP(=O)(O)OP(=O)(O)OP(=O)(O)O)[C@@H](O)[C@H]2O)c(=O)[nH]1 [GTP]
HPLC of c-di-GMP formation: GTP was absolutely converted to c-di-GMP when GTP was incubated with ImcA alone
